Data taken from ChEMBL document CHEMBL1157833, “Serotonin derivatives as a new class of non-ATP-competitive receptor tyrosine kinase inhibitors” (Bioorg Med Chem, 2010).
Where a name gives a salt, the structure may show the parent alone.

Experiments:
[1] = molecular target: T1, Epidermal growth factor receptor (Homo sapiens, UniProt P00533); assay: Inhibition of EGFR after 30 mins by chemiluminescence ELISA
[2] = molecular target: T2, Vascular endothelial growth factor receptor 2 (Homo sapiens, UniProt P35968); assay: Inhibition of VEGFR2 after 30 mins by chemiluminescence ELISA
T2 sequence (P35968 whole entry): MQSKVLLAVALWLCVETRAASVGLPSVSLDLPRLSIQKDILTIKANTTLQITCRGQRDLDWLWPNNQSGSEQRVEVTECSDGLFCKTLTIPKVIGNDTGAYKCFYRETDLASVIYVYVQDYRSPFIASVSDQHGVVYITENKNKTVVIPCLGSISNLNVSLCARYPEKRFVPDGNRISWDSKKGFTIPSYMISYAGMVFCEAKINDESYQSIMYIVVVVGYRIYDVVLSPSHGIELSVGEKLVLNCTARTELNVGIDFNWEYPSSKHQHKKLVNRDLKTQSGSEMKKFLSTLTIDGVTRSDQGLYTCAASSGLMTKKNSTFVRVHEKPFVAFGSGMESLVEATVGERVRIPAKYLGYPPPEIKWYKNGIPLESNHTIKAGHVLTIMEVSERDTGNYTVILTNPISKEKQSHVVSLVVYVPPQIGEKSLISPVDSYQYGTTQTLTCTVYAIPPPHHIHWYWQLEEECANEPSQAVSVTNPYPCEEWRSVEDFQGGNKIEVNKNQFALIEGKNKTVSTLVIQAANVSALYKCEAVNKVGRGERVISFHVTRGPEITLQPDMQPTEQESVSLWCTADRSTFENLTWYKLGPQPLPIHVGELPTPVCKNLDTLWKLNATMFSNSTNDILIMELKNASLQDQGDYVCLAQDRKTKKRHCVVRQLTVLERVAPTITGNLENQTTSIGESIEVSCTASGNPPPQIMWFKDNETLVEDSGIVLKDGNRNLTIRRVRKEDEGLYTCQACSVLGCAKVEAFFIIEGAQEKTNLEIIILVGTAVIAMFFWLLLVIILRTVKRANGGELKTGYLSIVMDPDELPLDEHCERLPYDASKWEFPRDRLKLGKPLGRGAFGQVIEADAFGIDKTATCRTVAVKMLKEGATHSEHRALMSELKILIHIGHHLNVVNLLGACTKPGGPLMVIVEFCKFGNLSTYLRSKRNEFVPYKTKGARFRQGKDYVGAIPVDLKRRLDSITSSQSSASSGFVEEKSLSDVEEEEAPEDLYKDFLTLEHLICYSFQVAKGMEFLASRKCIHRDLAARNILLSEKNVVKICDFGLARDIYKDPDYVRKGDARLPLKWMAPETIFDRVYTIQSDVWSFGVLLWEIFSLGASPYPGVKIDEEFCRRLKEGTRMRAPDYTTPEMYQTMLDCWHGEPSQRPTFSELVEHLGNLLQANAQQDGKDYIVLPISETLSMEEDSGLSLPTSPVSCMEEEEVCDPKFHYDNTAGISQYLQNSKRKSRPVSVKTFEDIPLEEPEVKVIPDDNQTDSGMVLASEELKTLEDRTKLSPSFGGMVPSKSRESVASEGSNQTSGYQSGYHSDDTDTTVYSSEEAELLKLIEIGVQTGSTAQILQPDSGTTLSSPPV

[3] = molecular target: T3, Vascular endothelial growth factor receptor 3 (Homo sapiens, UniProt P35916); assay: Inhibition of VEGFR3 after 30 mins by chemiluminescence ELISA
[4] = molecular target: T4, Insulin-like growth factor 1 receptor (Homo sapiens, UniProt P08069); assay: Inhibition of IGF1R after 30 mins by chemiluminescence ELISA
T4 sequence (P08069 31-736 limits assumed): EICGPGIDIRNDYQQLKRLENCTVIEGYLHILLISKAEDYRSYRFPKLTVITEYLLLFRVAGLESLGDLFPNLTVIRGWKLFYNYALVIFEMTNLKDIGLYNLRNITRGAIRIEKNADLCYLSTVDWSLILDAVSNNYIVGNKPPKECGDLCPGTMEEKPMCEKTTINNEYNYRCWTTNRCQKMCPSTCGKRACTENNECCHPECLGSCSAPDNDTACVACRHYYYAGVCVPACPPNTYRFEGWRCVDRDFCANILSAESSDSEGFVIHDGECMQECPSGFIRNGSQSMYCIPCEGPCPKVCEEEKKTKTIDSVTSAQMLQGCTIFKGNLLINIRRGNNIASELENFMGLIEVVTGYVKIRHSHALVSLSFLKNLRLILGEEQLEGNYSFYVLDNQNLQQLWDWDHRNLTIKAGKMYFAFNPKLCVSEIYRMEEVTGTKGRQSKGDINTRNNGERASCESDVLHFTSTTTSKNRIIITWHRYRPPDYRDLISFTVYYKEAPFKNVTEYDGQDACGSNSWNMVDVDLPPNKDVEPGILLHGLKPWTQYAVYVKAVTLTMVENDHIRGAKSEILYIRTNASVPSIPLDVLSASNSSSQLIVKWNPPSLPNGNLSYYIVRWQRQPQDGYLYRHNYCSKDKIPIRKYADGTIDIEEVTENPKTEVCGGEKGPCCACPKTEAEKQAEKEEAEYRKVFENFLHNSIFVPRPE
T4 sequence (P08069 741-1367 limits assumed): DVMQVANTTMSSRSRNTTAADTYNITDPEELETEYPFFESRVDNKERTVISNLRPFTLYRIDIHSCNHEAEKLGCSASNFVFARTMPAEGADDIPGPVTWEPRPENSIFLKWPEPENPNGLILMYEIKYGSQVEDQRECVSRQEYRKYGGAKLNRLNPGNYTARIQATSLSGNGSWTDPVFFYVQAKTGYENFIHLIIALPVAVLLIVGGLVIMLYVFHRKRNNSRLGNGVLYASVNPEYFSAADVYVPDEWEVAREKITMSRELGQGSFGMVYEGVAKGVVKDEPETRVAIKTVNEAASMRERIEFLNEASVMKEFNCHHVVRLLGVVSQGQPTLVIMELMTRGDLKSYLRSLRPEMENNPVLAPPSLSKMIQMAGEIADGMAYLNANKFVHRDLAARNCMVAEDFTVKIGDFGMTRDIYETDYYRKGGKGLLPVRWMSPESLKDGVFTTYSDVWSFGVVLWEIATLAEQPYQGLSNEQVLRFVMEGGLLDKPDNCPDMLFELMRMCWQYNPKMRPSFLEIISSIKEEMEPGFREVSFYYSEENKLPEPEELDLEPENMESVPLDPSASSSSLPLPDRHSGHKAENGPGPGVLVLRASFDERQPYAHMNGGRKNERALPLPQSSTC

[5] = Antiproliferative activity against HEPM cells assessed as BrdU incorporation into mitotic active cells after 24 hrs by luminometry; format: cell-based; conditions: Homo sapiens
HT-29 [6] = assay: Antiproliferative activity against human HT-29 cells assessed as BrdU incorporation into mitotic active cells after 24 hrs by luminometry; format: functional, cell-based; conditions: HT-29, 24 h
MCF7 [7] = assay: Antiproliferative activity against human MCF7 cells assessed as BrdU incorporation into mitotic active cells after 24 hrs by luminometry; format: functional, cell-based; conditions: MCF7, 24 h
[8] = Cytotoxicity against HEPM cells after 24 hrs by WST1 assay; format: cell-based; conditions: Homo sapiens
HT-29 [9] = assay: Cytotoxicity against human HT-29 cells after 24 hrs by WST1 assay; format: functional, cell-based; conditions: HT-29, 24 h
[10] = molecular target: T2, Vascular endothelial growth factor receptor 2; assay: Noncompetitive inhibition of VEGFR2 after 30 mins by chemiluminescence ELISA in presence of 25 uM ATP
[11] = molecular target: T4, Insulin-like growth factor 1 receptor; assay: Noncompetitive inhibition of IGF1R after 30 mins by chemiluminescence ELISA in presence of 25 uM ATP
[12] = molecular target: T1, Epidermal growth factor receptor
Description: Noncompetitive inhibition of EGFR after 30 mins by chemiluminescence ELISA in presence of 25 uM ATP

MCF7 [13] = assay: Cytotoxicity against human MCF7 cells after 24 hrs by WST1 assay; format: functional, cell-based; conditions: MCF7, 24 h
[14] = molecular target: T1, Epidermal growth factor receptor; remark: listed apart in the source
Description: Noncompetitive inhibition of EGFR after 30 mins by chemiluminescence ELISA in presence of 50 uM ATP

[15] = molecular target: T2, Vascular endothelial growth factor receptor 2; assay: Noncompetitive inhibition of VEGFR2 after 30 mins by chemiluminescence ELISA in presence of 50 uM ATP
HUVEC [16] = assay: Cytotoxicity against HUVEC after 24 hrs by WST1 assay; format: cell-based; conditions: Homo sapiens
[17] = molecular target: T3, Vascular endothelial growth factor receptor 3; assay: Noncompetitive inhibition of VEGFR3 after 30 mins by chemiluminescence ELISA in presence of 50 uM ATP
[18] = molecular target: T4, Insulin-like growth factor 1 receptor; assay: Noncompetitive inhibition of IGF1R after 30 mins by chemiluminescence ELISA in presence of 50 uM ATP
HUVEC [19] = assay: Antiproliferative activity against HUVEC assessed as BrdU incorporation into mitotic active cells after 24 hrs by luminometry; format: cell-based; conditions: Homo sapiens
[20] = molecular target: T4, Insulin-like growth factor 1 receptor; assay: Noncompetitive inhibition of IGF1R after 30 mins by chemiluminescence ELISA in presence of 250 uM ATP
[21] = molecular target: T1, Epidermal growth factor receptor; remark: listed apart in the source
Description: Noncompetitive inhibition of EGFR after 30 mins by chemiluminescence ELISA in presence of 250 uM ATP

[22] = molecular target: T2, Vascular endothelial growth factor receptor 2; assay: Noncompetitive inhibition of VEGFR2 after 30 mins by chemiluminescence ELISA in presence of 250 uM ATP
[23] = molecular target: T3, Vascular endothelial growth factor receptor 3; assay: Noncompetitive inhibition of VEGFR3 after 30 mins by chemiluminescence ELISA in presence of 25 uM ATP
[24] = molecular target: T3, Vascular endothelial growth factor receptor 3; assay: Noncompetitive inhibition of VEGFR3 after 30 mins by chemiluminescence ELISA in presence of 250 uM ATP

T1 sequence (P00533 whole entry): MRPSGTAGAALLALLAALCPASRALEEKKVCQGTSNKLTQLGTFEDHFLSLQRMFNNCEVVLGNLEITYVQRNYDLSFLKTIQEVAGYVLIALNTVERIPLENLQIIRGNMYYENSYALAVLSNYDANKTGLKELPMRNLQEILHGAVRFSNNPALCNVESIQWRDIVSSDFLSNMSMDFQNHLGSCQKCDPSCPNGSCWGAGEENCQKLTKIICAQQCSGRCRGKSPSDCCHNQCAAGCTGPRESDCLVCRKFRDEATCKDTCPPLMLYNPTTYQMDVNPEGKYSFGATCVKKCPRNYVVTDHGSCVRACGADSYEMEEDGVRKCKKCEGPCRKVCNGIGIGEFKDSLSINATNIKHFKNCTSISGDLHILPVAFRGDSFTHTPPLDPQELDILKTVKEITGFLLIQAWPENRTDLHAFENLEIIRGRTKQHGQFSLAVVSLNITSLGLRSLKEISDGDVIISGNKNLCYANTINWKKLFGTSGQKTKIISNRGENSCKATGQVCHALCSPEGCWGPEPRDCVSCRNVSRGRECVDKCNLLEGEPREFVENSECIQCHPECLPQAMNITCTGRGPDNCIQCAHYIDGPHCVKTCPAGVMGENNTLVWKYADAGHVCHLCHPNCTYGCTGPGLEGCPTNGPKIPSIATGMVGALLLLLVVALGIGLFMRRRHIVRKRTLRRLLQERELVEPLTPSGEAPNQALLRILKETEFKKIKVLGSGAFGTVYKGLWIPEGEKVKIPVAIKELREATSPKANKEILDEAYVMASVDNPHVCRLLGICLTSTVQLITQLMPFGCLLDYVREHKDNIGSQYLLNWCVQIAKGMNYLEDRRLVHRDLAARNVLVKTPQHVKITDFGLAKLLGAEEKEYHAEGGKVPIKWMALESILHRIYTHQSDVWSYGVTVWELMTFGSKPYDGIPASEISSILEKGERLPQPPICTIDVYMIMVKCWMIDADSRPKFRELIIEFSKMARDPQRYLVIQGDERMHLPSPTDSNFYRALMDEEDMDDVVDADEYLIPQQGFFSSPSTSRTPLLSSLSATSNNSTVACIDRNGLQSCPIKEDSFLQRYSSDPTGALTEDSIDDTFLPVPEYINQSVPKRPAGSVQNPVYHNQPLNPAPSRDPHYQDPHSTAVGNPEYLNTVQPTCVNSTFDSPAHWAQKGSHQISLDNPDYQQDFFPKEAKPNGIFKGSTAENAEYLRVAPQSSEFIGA

Compound	IC50 [1] [nM]	IC50 [2] [nM]	IC50 [3] [nM]	IC50 [4] [nM]	also measured
CSc1ccc(CCCCCn2cc(CCN)c3cc(OCCc4ccc(O)cc4)ccc32)cc1	1920	1220	2530	2250	
NCCc1c[nH]c2ccc(OCCc3ccc(O)cc3)cc12	2070	2030	2640	1780	
NC1CCc2c(c3cc(OCCc4ccc(O)cc4)ccc3n2CCCc2ccccc2)C1 (stereo unspecified)	2500	2070	2850	1330	
NC1CCc2c(c3cc(OCCc4ccc(O)cc4)ccc3n2CCCCCc2ccccc2)C1 (stereo unspecified)	1010	1060	2170	930	IC50 [5]: 2250 nM; IC50 (HT-29 [6]): 3.81 µM; IC50 (MCF7 [7]): 3.85 µM; IC50 [8]: 7.76 µM; IC50 (HT-29 [9]): 11 µM; IC50 [10]: 1060 nM; IC50 [11]: 930 nM; IC50 [12]: 1010 nM; IC50 (MCF7 [13]): 4.79 µM; IC50 [14]: 980 nM; IC50 [15]: 1090 nM; IC50 (HUVEC [16]): 5.04 µM; IC50 [17]: 2110 nM; IC50 [18]: 990 nM; IC50 (HUVEC [19]): 1380 nM; IC50 [20]: 1220 nM; IC50 [21]: 1000 nM; IC50 [22]: 1040 nM; IC50 [23]: 2170 nM; IC50 [24]: 2190 nM
COc1ccc(CCCCCn2c3c(c4cc(OCCc5ccc(O)cc5)ccc42)CC(N)CC3)cc1 (stereo unspecified)	1370	940	1810	2860	
NCCc1cn(Cc2ccc(-c3ccccc3)cc2)c2ccc(OCCc3ccc(O)cc3)cc12	1300	1170	4070	2360	
NCCc1cn(Cc2ccc(-c3cccc(C(F)(F)F)c3)cc2)c2ccc(OCCc3ccc(O)cc3)cc12	1110	1560	3010	1070	IC50 [5]: 2740 nM; IC50 (HT-29 [6]): 4.38 µM; IC50 (MCF7 [7]): 3.57 µM; IC50 [8]: 6.64 µM; IC50 (HT-29 [9]): 7.95 µM; IC50 [10]: 1560 nM; IC50 [11]: 1070 nM; IC50 [12]: 1110 nM; IC50 (MCF7 [13]): 3.34 µM; IC50 [14]: 1120 nM; IC50 [15]: 1480 nM; IC50 (HUVEC [16]): 6.32 µM; IC50 [17]: 2980 nM; IC50 [18]: 1060 nM; IC50 (HUVEC [19]): 1980 nM; IC50 [20]: 1020 nM; IC50 [21]: 1060 nM; IC50 [22]: 1500 nM; IC50 [23]: 3010 nM; IC50 [24]: 3080 nM
NC1CCc2[nH]c3ccc(OCCc4ccc(O)cc4)cc3c2C1 (stereo unspecified)	15100	27100	34600	10600	
CN(C)c1ccc(CCCCCn2c3c(c4cc(OCCc5ccc(O)cc5)ccc42)CC(N)CC3)cc1 (stereo unspecified)	1910		1660		
NCCc1c[nH]c2ccc(O)cc12 [SEROTONIN HYDROCHLORIDE]	> 50000	> 50000	> 50000	> 50000	
COc1ccc(CCOc2ccc3c(c2)c(CCN)cn3CCCCCc2ccc(SC)cc2)cc1	2450	1450	1310	980	
COCCc1ccc(O)cc1	> 50000	> 50000	> 50000	> 50000	
NC1CCc2c(c3cc(OCCc4ccc(O)cc4)ccc3n2CCCCCc2ccc(C(F)(F)F)cc2)C1 (stereo unspecified)	2750	2180	2270	5150	
NCCc1cn(CCCCCc2ccccc2)c2ccc(OCCc3ccc(O)cc3)cc12	1630	2830	2680	2960	
NC1CCc2c(c3cc(OCCc4ccc(O)cc4)ccc3n2CCCCCc2ccccn2)C1 (stereo unspecified)		2120		2800	
CSc1ccc(CCCCCn2cc(CCNC(=O)OC(C)(C)C)c3cc(OCCc4ccc(O)cc4)ccc32)cc1	> 50000	> 50000	> 50000	> 50000	
COc1ccc(-c2ccc(Cn3cc(CCN)c4cc(OCCc5ccc(O)cc5)ccc43)cc2)cc1	1250	1010	960	1790	IC50 [5]: 2530 nM; IC50 (HT-29 [6]): 4.86 µM; IC50 (MCF7 [7]): 4.79 µM; IC50 [8]: 5.7 µM; IC50 (HT-29 [9]): 8.5 µM; IC50 (MCF7 [13]): 4.93 µM; IC50 (HUVEC [16]): 3.45 µM; IC50 (HUVEC [19]): 750 nM
COc1ccc(CCCCCn2cc(CCN)c3cc(OCCc4ccc(O)cc4)ccc32)cc1	4400	2170	2050	3210	
